Patent publication US20250034194A1, “INHIBITORS OF ABNORMAL PHOSPHORYLATION AND TAU PROTEIN AGGREGATION” (UNIVERSITE DE PICARDIE JULES VERNE, priority 2021, published 2025)

Columns and labels:
[1] = biological target: T1, tau protein (4R2N isoform, 441 amino acids) (Homo sapiens, UniProt P10636); assay: Induction of tau protein aggregation, Thioflavin T incorporation; format: biochemical; details: tau 0.71 mg/mL, compound 0.175 mg/mL (mass ratio 4/1); up to 72 h
T1 construct: purchased Tebu-bio (custom synthesized)
T1 sequence (P10636 1-441 isoform P10636-8): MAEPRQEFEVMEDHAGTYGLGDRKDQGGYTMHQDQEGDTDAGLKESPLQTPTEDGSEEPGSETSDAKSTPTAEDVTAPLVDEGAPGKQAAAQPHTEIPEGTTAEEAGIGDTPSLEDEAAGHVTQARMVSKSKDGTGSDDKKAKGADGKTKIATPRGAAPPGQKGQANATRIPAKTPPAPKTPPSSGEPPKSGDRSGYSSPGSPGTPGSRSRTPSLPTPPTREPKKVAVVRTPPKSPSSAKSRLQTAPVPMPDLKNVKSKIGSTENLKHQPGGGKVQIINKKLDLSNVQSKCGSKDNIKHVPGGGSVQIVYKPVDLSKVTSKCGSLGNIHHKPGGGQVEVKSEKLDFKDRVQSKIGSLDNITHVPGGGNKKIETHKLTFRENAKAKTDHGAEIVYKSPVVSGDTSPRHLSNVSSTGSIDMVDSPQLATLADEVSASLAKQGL
Protocol: The ability of the 16-carbon disulphated maltobionamide compound “Mal16diS” to induce tau protein aggregation, another step in the occurrence of neurofibrillary tangles, was evaluated. Thus, the ability of this molecule to induce or inhibit the aggregation of tau in vitro (FIG. 10) was evaluated in a test described in the article by Sui et al, 2015 in which tau aggregation is monitored by the incorporation of Thioflavin T (ThT). […]
100 μL of ThT (Sigma-Aldrich) at 50 μM is immediately added to each well, then the plate is incubated at 37° C. with stirring. Monitoring the formation of tau protein aggregates is possible by monitoring the incorporation of thioflavin leading to its fluorescence emission and is carried out by reading at 0, 24, 40, 48 and 71 h at Exc wavelength 450 nm/Em wavelength 510 nm, by means of an Infinite M1000 spectrofluorometer (Tecan).

SH-SY5Y = assay: Cytotoxicity study, MTT test; format: cell-based; details: differentiated SH-SY5Y; 0.1 to 100 μg/mL; 24 hours
Protocol: In order to evaluate the level of toxicity of these molecules according to their concentration in the cellular environment, an MTT test (3-(4,5-dimethylthiazol-2-yl)-2,5-diphenyl tetrazolium bromide) is carried out (FIGS. 11 and 12) upstream of the phosphorylation tests in cellulo.
SH-SY5Y (ATCC-CRL-2266) are developed in Dulbecco's Modified Eagle Complete Medium (DMEM-GlutaMAX™, Life Technologies) with 10% foetal bovine serum (FBS) and 1% penicillin/streptomycin in an incubator at 37° C. with 5% CO2.
For this, the SH-SY5Y cells are cultured in a 6-well plate at a cell density of 200,000 cells/well and are differentiated using retinoic acid (10 μM, Sigma Aldrich) for 5 days. On day 6, the cells are brought into contact with LG2A molecules at different concentrations (0.1, 1, 10 or 100 μg/mL), in a final volume of 2 mL. After 24 hours, MTT (5 μg/mL; Sigma-Aldrich) is added to the cell medium for 2 hours at 37° C. Then the medium is removed and 200 μL of pure dimethylsulfoxide (DMSO, Sigma-Aldrich) are added to each well. The entire contents of each well are transferred to a 96-well plate and the absorbance is measured at 562 nm using the Infinite M1000 spectrofluorometer (Tecan).

[2] = tested on: tau phosphorylation (S262 site) in SH-SY5Y cells; assay: In cellulo tau phosphorylation test in the SH-SY5Y line (H2O2 stress induction); format: cell-based; details: 24 hours, then H2O2
Protocol: The tau phosphorylation induction model on the SH-SY5Y cell line described in the Gly-CRRET laboratory article was used here (Sepulveda-Diaz et al., 2015).
In short, SH-SY5Y cells are seeded in 6-well plates and differentiated using retinoic acid (10 μM, Sigma Aldrich) for 5 days. On day 6, the cells are placed in the presence of the Mal16diS and Mal18diS molecules at different concentrations (1, 10 or 100 μg/mL), in a final volume of 2 mL simultaneously with a well not receiving molecules. After 24 hours, the molecules are removed and the stress inducer (H2O2, Sigma Aldrich) is added to the cell medium for 30 minutes. The cells are then rinsed with 1×PBS then lysed and recovered in RIPA buffer (Thermo Fisher). The protein extracts from the cells (10 μg) are then analysed by western blot according to the same procedure described above.
The tau phosphorylation site studied here is the S262 site (Thermo Fisher), normalized to the expression of the GAPDH protein (Sigma Aldrich). The bands are quantified using the Odyssey software of the LI-COR device allowing the p-tau/GAPDH ratio to be calculated for each of the conditions. The ratio obtained for each concentration of molecule is then expressed as a percentage of the ratio obtained for the control cells, i.e., not treated by the molecules. Thus a value less than 100% corresponds to protection provided by the molecules in this cellular model of tau phosphorylation induction.
The experiment was repeated at least 4 times for each molecule dose for the “Mal16diS” and “Mal18diS” molecules and at least twice for the “Cell16diS” and “Lac16diS” molecules. The mean and standard deviation of the replicates are shown in FIGS. 13 to 16; each of the values obtained for each dose is compared to that of the control without addition of molecule by means of a t-test. Statistical differences with p-value <0.05 and <0.001 are represented by “*” and “***” respectively.

What does the source list for `CCCCCCCCCCCCCCCCNC(=O)[C@H](O)[C@@H](O)[C@H](O[C@H]1OC(COS(=O)(=O)[O-])[C@@H](O)C(O)[C@@H]1O)[C@H](O)COS(=O)(=O)[O-].[Na+].[Na+]` (stereo partly drawn) [Mal16diS, N-Hexadecyl-6,6′-Di-O-Sulfo-D-Maltobioamide Disodium]?
induction of tau protein aggregation (Thioflavin-T) [1]: induces the aggregation of tau protein more weakly compared to heparin; cytotoxicity (MTT) (SH-SY5Y): not cytotoxic; reduction in tau phosphorylation (S262, p-tau/GAPDH) compared to untreated cells ([2]; 1 μg/mL): 30%; reduction in tau phosphorylation (S262, p-tau/GAPDH) compared to untreated cells ([2]; 10 μg/mL): 40%
